Assay results from ChEMBL document CHEMBL3885881, “DrugMatrix”.

Organism: Rattus norvegicus
Assay: DrugMatrix - Regimen: Daily Repeat
Type: toxicity, organism-based, Sprague-Dawley
Design: regimen Daily Repeat, gender Male, age 6-8 weeks
Settings: in vivo, po, route oral GAVAGE, […]; for ABSOLUTE BASOPHIL / ABSOLUTE EOSINOPHIL / ABSOLUTE LYMPHOCYTE / ABSOLUTE MONOCYTE / ABSOLUTE SEGMENTED NEUTROPHIL / BASOPHIL / EOSINOPHIL / ERYTHROCYTE COUNT / HEMATOCRIT / HEMOGLOBIN / LEUKOCYTE COUNT / LYMPHOCYTE / MEAN CORPUSCULAR HEMOGLOBIN / MEAN CORPUSCULAR HEMOGLOBIN CONCENTRATION / MEAN CORPUSCULAR VOLUME / MONOCYTE / NEUTROPHIL / NUCLEATED RED BLOOD CELLS / PLATELET COUNT: tissue Blood; for ALANINE AMINOTRANSFERASE / ALKALINE PHOSPHATASE / ASPARTATE AMINOTRANSFERASE / BLOOD UREA NITROGEN / CARBON DIOXIDE / CHLORIDE / CHOLESTEROL / CREATINE PHOSPHOKINASE / CREATININE / GLUCOSE / LACTATE DEHYDROGENASE / LIPASE / PHOSPHORUS / POTASSIUM / SODIUM / TOTAL BILIRUBIN / TOTAL PROTEIN / URIC ACID: tissue Plasma
[1] = 0 mg/kg, 72 h, dose level Control, time 3 day
[2] = 0 mg/kg, dose level Control, time 7 day
[3] = 100 mg/kg, 72 h, dose level Low, time 3 day

Cc1ccc(C)c(OCCCC(C)(C)C(=O)O)c1 [GEMFIBROZIL]
ABSOLUTE BASOPHIL [1]: 0 CELLS/uL | ABSOLUTE EOSINOPHIL [1]: 37.33 CELLS/uL | ABSOLUTE LYMPHOCYTE [1]: 6295.33 CELLS/uL | ABSOLUTE MONOCYTE [1]: 122.17 CELLS/uL | ABSOLUTE SEGMENTED NEUTROPHIL [1]: 861.83 CELLS/uL | BASOPHIL [1]: 0% | EOSINOPHIL [1]: 0.5% | ERYTHROCYTE COUNT [1]: 5.2 x10E6/uL | HEMATOCRIT [1]: 32.58% | HEMOGLOBIN [1]: 12.95 G/DL | LEUKOCYTE COUNT [1]: 7.32 x10E3/uL | LYMPHOCYTE [1]: 86% | MEAN CORPUSCULAR HEMOGLOBIN [1]: 24.93 pg | MEAN CORPUSCULAR HEMOGLOBIN CONCENTRATION [1]: 39.77 G/DL | MEAN CORPUSCULAR VOLUME [1]: 62.65 fL | MONOCYTE [1]: 1.67% | NEUTROPHIL [1]: 11.83% | NUCLEATED RED BLOOD CELLS [1]: 0 /100WBC | PLATELET COUNT [1]: 1029 x10E3/uL | ALANINE AMINOTRANSFERASE [1]: 63.67 u/L | ALKALINE PHOSPHATASE [1]: 329.83 u/L | ASPARTATE AMINOTRANSFERASE [1]: 77.67 u/L | BLOOD UREA NITROGEN [1]: 18 mg/dL | CARBON DIOXIDE [1]: 29.67 mmol/L | CHLORIDE [1]: 102.67 MEQ/L | CHOLESTEROL [1]: 64.5 mg/dL | CREATINE PHOSPHOKINASE [1]: 178.67 u/L | CREATININE [1]: 0.18 mg/dL | GLUCOSE [1]: 163.83 mg/dL | LACTATE DEHYDROGENASE [1]: 75.83 u/L | LIPASE [1]: 10 u/L | PHOSPHORUS [1]: 8.28 mg/dL | POTASSIUM [1]: 4.79 MEQ/L | SODIUM [1]: 142.22 MEQ/L | TOTAL BILIRUBIN [1]: 0.22 mg/dL | TOTAL PROTEIN [1]: 5.78 G/DL | URIC ACID [1]: 0.87 mg/dL | ABSOLUTE BASOPHIL [2]: 0 CELLS/uL | ABSOLUTE EOSINOPHIL [2]: 19 CELLS/uL | ABSOLUTE LYMPHOCYTE [2]: 7803.5 CELLS/uL | ABSOLUTE MONOCYTE [2]: 117.83 CELLS/uL | ABSOLUTE SEGMENTED NEUTROPHIL [2]: 1093 CELLS/uL | BASOPHIL [2]: 0% | EOSINOPHIL [2]: 0.17% | ERYTHROCYTE COUNT [2]: 5.84 x10E6/uL | HEMATOCRIT [2]: 35.75% | HEMOGLOBIN [2]: 13.87 G/DL | LEUKOCYTE COUNT [2]: 9.03 x10E3/uL | LYMPHOCYTE [2]: 87.17% | MEAN CORPUSCULAR HEMOGLOBIN [2]: 23.78 pg | MEAN CORPUSCULAR HEMOGLOBIN CONCENTRATION [2]: 38.8 G/DL | MEAN CORPUSCULAR VOLUME [2]: 61.25 fL | MONOCYTE [2]: 1.17% | NEUTROPHIL [2]: 11.5% | NUCLEATED RED BLOOD CELLS [2]: 0 /100WBC | PLATELET COUNT [2]: 1098.67 x10E3/uL | ALANINE AMINOTRANSFERASE [2]: 66 u/L | ALKALINE PHOSPHATASE [2]: 291.83 u/L | ASPARTATE AMINOTRANSFERASE [2]: 80.5 u/L | BLOOD UREA NITROGEN [2]: 15.67 mg/dL | CARBON DIOXIDE [2]: 30 mmol/L | CHLORIDE [2]: 101.67 MEQ/L | CHOLESTEROL [2]: 69.67 mg/dL | CREATINE PHOSPHOKINASE [2]: 363.33 u/L | CREATININE [2]: 0.25 mg/dL | GLUCOSE [2]: 146.5 mg/dL | LACTATE DEHYDROGENASE [2]: 219.67 u/L | LIPASE [2]: 11.33 u/L | PHOSPHORUS [2]: 10.08 mg/dL | POTASSIUM [2]: 5.22 MEQ/L | SODIUM [2]: 144.67 MEQ/L | TOTAL BILIRUBIN [2]: 0.12 mg/dL | TOTAL PROTEIN [2]: 6.33 G/DL | URIC ACID [2]: 0.75 mg/dL | ABSOLUTE BASOPHIL [3]: 0 CELLS/uL | ABSOLUTE EOSINOPHIL [3]: 135 CELLS/uL | ABSOLUTE LYMPHOCYTE [3]: 14816.33 CELLS/uL | ABSOLUTE MONOCYTE [3]: 381.17 CELLS/uL | ABSOLUTE SEGMENTED NEUTROPHIL [3]: 1317.5 CELLS/uL | BASOPHIL [3]: 0% | EOSINOPHIL [3]: 0.67% | ERYTHROCYTE COUNT [3]: 5.65 x10E6/uL | HEMATOCRIT [3]: 35.43% | HEMOGLOBIN [3]: 14.12 G/DL | LEUKOCYTE COUNT [3]: 16.65 x10E3/uL | LYMPHOCYTE [3]: 89% | MEAN CORPUSCULAR HEMOGLOBIN [3]: 25.02 pg | MEAN CORPUSCULAR HEMOGLOBIN CONCENTRATION [3]: 39.85 G/DL | MEAN CORPUSCULAR VOLUME [3]: 62.8 fL | MONOCYTE [3]: 2.33% | NEUTROPHIL [3]: 8% | NUCLEATED RED BLOOD CELLS [3]: 0 /100WBC | PLATELET COUNT [3]: 1185.67 x10E3/uL | ALANINE AMINOTRANSFERASE [3]: 52.83 u/L | ALKALINE PHOSPHATASE [3]: 423.5 u/L | ASPARTATE AMINOTRANSFERASE [3]: 76.17 u/L | BLOOD UREA NITROGEN [3]: 14.67 mg/dL | CARBON DIOXIDE [3]: 31 mmol/L | CHLORIDE [3]: 101.5 MEQ/L | CHOLESTEROL [3]: 48 mg/dL | CREATINE PHOSPHOKINASE [3]: 304.5 u/L | CREATININE [3]: 0.2 mg/dL | GLUCOSE [3]: 145.83 mg/dL | LACTATE DEHYDROGENASE [3]: 103.67 u/L | LIPASE [3]: 11.17 u/L | PHOSPHORUS [3]: 11.08 mg/dL | POTASSIUM [3]: 6.55 MEQ/L | SODIUM [3]: 142.47 MEQ/L | TOTAL BILIRUBIN [3]: 0.2 mg/dL | TOTAL PROTEIN [3]: 5.9 G/DL | URIC ACID [3]: 1.3 mg/dL
